Measurements: patent US20180002319A1, “MACROCYCLIC PICOLINAMIDE COMPOUNDS WITH FUNGICIDAL ACTIVITY” (DOW AGROSCIENCES LLC, priority 2014, published 2018)
Read-outs that look alike come from different tables or passages of the source.

Tests used:
[1] = tested on: Zymoseptoria tritici; test: Leaf Blotch of Wheat (SEPTTR) fungicidal activity; type: in vivo; details: High Volume application, 100 ppm, wheat leaf blotch
Summary of the method: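 Wheat seedlings (Yuma, first leaf emerged) were sprayed to run-off with compound in acetone/water containing Triton X-100 and inoculated with Z. tritici spores before or after treatment. Percent disease control comes from 0–100% severity on treated versus untreated plants.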

[2] = tested on: Puccinia triticina; test: Wheat Brown Rust (PUCCRT) fungicidal activity; type: in vivo; details: High Volume application, 100 ppm
Summary of the method: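 Yuma wheat seedlings at first-leaf stage sprayed to run-off with acetone/water (Triton X-100) solutions, inoculated with P. triticina spores before or after treatment. Overnight dark dew at 22° C, then greenhouse at 24° C; percent disease control from severity versus untreated plants.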

[3] = 24 h, 1 day protectant, read-out: SEPTTR disease control, 1DP (1 Day Protectant)
[4] = 72 h, 3 day curative, read-out: SEPTTR disease control, 3DC (3 Day Curative)
[5] = 24 h, 1 day protectant, read-out: PUCCRT disease control, 1DP (1 Day Protectant)
[6] = 72 h, 3 day curative, read-out: PUCCRT disease control, 3DC (3 Day Curative)

SMILES	pest or weed control at 100 ppm [1, 3]	pest or weed control at 100 ppm [1, 4]	pest or weed control at 100 ppm [2, 5]	pest or weed control at 100 ppm [2, 6]
COc1ccnc(C(=O)N[C@H]2CCCC[C@H](OC3CCCC3)[C@@H](OC)[C@H](C)OC2=O)c1O [Compound 108]	< 80%	< 80%	< 80%	> 80%
COc1ccnc(C(=O)N[C@H]2CCCC[C@H](Oc3ccccc3)[C@@H](OC3CCCC3)[C@H](C)OC2=O)c1O [Compound 109]	> 80%	< 80%	> 80%	< 80%
COc1ccnc(C(=O)N[C@H]2CCOC[C@H](Oc3ccccc3)[C@@H](Oc3ccccc3)[C@H](C)OC2=O)c1O [Compound 110]	> 80%	–	> 80%	> 80%
CCCOC(=O)O[C@H]1CCCC[C@H](NC(=O)c2nccc(OC)c2O)C(=O)O[C@@H](C)[C@@H]1OCC(C)C [Compound 111]	< 80%	> 80%	< 80%	< 80%
COc1ccnc(C(=O)N[C@H]2COCCC[C@@H](OCC(C)C)[C@H](C)OC2=O)c1O [Compound 112]	< 80%	< 80%	< 80%	< 80%
COc1ccnc(C(=O)N[C@H]2CCOC[C@H](OC)[C@@H](Oc3ccccc3)[C@H](C)OC2=O)c1O [Compound 113]	> 80%	> 80%	> 80%	> 80%
CCCO[C@H]1COCC[C@H](NC(=O)c2nccc(OC)c2O)C(=O)O[C@@H](C)[C@@H]1Oc1ccccc1 [Compound 114]	> 80%	> 80%	> 80%	> 80%
COc1ccnc(C(=O)N[C@H]2CCOC[C@H](OCC(C)C)[C@@H](OCC(C)C)[C@H](C)OC2=O)c1O [Compound 116]	–	< 80%	< 80%	< 80%
COc1ccnc(C(=O)N[C@H]2CCOC[C@H](OC(=O)C(C)C)[C@@H](Oc3ccccc3)[C@H](C)OC2=O)c1O [Compound 117]	> 80%	< 80%	< 80%	–
COc1ccnc(C(=O)N[C@H]2CCOC[C@H](OCC(C)C)[C@@H](Oc3ccccc3)[C@H](C)OC2=O)c1O [Compound 118]	> 80%	–	> 80%	< 80%
C[C@@H]1OC(=O)[C@@H](NC(=O)c2ncccc2O)CCCC[C@H](CC2CCCC2)[C@H]1Oc1ccccc1 [Compound 120]	< 80%	> 80%	> 80%	–
COc1ccnc(C(=O)N[C@H]2CCCC[C@H](CC3CCCC3)[C@@H](Oc3ccccc3)[C@H](C)OC2=O)c1O [Compound 121]	< 80%	> 80%	< 80%	–
C=CCO[C@@H]1[C@@H](CC2CCCC2)CCCC[C@H](NC(=O)c2nccc(OC)c2O)C(=O)O[C@H]1C [Compound 122]	< 80%	< 80%	< 80%	–
COc1ccnc(C(=O)N[C@H]2CCCC[C@H](CC3CCCC3)[C@@H](OC(=O)C(C)C)[C@H](C)OC2=O)c1O [Compound 123]	–	< 80%	< 80%	–
CCCO[C@@H]1[C@@H](CC2CCCC2)CCCC[C@H](NC(=O)c2nccc(OC)c2O)C(=O)O[C@H]1C [Compound 124]	< 80%	< 80%	< 80%	< 80%
COc1ccnc(C(=O)N[C@H]2CCCC[C@H](CC3CCCC3)[C@@H](OC)[C@H](C)OC2=O)c1O [Compound 125]	< 80%	< 80%	> 80%	< 80%
COc1ccnc(C(=O)N[C@H]2COCC[C@H](Cc3ccccc3)[C@@H](Oc3ccccc3)[C@H](C)OC2=O)c1O [Compound 126]	> 80%	< 80%	> 80%	> 80%
COc1ccnc(C(=O)N[C@H]2CCCC[C@H](Cc3ccccc3)[C@@H](OC(=O)C(C)C)[C@H](C)OC2=O)c1O [Compound 127]	> 80%	< 80%	> 80%	> 80%
